Reference: patent US4385062A, “1-[(-2-Mercaptocycloalkyl)carbonyl]-L-proline derivatives, the process for their manufacture, the intermediates for their synthesis and their use as anti-hypertensive agents” (Gruppo Lepetit S.p.A., priority 1980, dated 1983)

Assays:
[1] = target: T1, angiotensin converting enzyme (Rattus norvegicus, UniProt P47820); assay: in vitro radioimmunoassay of angiotensin-II generation in rat plasma (converting enzyme inhibition); format: biochemical; settings: 37° C., 30 minutes, angiotensin-II antibody trapping, read-out: IC50 (concentration at which a 50% inhibition of formation of angiotensin-II with respect to the control occurs) (converted)
T1 construct: rat plasma containing angiotensinogen, renin and converting enzyme in physiological amounts; from tissue; host or cells: rat plasma
T1 sequence (P47820 36-1238 limits assumed): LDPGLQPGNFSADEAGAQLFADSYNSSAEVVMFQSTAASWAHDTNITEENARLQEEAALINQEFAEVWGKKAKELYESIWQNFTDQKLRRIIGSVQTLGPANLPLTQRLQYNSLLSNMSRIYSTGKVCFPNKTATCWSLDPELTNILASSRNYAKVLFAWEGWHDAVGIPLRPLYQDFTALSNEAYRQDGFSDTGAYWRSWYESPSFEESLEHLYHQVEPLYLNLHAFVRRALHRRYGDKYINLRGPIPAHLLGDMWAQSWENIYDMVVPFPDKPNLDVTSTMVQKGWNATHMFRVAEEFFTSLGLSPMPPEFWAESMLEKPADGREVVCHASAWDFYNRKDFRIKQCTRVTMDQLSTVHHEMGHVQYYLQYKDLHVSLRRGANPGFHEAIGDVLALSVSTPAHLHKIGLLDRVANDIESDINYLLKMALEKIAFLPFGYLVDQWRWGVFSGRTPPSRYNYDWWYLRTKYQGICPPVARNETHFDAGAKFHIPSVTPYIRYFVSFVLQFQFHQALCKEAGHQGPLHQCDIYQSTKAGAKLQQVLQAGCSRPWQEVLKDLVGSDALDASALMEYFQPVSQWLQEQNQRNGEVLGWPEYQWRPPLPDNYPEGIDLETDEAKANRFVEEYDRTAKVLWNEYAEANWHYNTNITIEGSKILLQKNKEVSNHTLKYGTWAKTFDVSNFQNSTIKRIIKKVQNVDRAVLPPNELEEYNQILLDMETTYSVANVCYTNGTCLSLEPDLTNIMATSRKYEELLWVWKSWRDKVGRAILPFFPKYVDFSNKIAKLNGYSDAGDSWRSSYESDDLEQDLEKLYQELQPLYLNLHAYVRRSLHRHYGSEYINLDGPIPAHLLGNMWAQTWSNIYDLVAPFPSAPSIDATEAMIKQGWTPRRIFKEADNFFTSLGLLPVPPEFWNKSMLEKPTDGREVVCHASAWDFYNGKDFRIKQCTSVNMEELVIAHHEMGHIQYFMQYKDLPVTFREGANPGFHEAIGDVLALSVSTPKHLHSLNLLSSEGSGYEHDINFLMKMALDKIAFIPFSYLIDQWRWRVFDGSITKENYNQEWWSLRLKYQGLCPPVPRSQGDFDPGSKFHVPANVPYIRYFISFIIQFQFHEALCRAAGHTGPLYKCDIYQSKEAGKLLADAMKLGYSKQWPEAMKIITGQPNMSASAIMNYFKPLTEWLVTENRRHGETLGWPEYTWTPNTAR
Description: The in vitro activity was determined by a radioimmuno-assay carried out using the methodology illustrated by K. Poulsen in J. Lab. […] More particularly, the in vitro activity was quantitatively evaluated by following the procedure described below:
50 μl of rat plasma containing angiotensinogen, renin and converting enzyme in physiological amounts, but deprived of endogenous angiotensin-I and angiotensin-II, and 10 μl of angiotensin-II antibody in dilution (1:120) were incubated in a tube at 37° C. for 30 minutes.
During this enzymatic incubation in the absence of converting enzyme inhibitors, angiotensin-II which forms is then transformed into angiotensin-II by the action of converting enzyme and the angiotensin-II antibody which is present in the incubate, then captures and traps it, thus preserving angiotensin-II from the degrading action of plasmatic angiotensinases. Incubation was terminated by placing the tube at 0° C. and the amount of angiotensin-II formed and captured by the antibody was measured by radioimmunoassay (see K. Poulsen and J. Jorgensen J. Clin. Endocrinol. Metab. 39, 816-825 (1974). […]
As said above, the amount of captured angiotensin-II, was determined by a radioimmunological assay. […] After centrifugation at 3000×g for 30 minutes the supernatant which contains the antibody-bound angiotensin-II, was decanted in counting tubes and each sample was then counted.
For calculation of generated angiotensin-II from the amount of antibody-bound labeled angiotensin-II, an angiotensin-II standard curve was constructed using 50 μg of standard angiotensin-II (containing zero to 7.5 pg of angiotensin-II) and 10 μl of angiotensin-II antibody in dilution (1:120). […] By plotting the amounts of antibody-bound labeled angiotensin-II versus the known amounts of angiotensin-II initially present, a standard curve can be constructed, which allow a direct correlation between the amount of antibody-bound labeled angiotensin-II determined in each test and the amount of generated angiotensin-II.

[2] = target: T2, angiotensin converting enzyme (Rattus norvegicus, UniProt P47820); assay: inhibition of the pressure increase induced by angiotensin-I in anesthetized normotensive rats; format: in vivo; settings: normotensive rats anesthetized with nembuthal, angiotensin-I 0.1 μg/Kg, generally 15 minutes after test compound
T2 construct: confirmed also in vivo by means of an experiment performed on normotensive rats; from tissue; host or cells: anesthetized normotensive rats (whole animal)
T2 sequence (P47820 36-1313): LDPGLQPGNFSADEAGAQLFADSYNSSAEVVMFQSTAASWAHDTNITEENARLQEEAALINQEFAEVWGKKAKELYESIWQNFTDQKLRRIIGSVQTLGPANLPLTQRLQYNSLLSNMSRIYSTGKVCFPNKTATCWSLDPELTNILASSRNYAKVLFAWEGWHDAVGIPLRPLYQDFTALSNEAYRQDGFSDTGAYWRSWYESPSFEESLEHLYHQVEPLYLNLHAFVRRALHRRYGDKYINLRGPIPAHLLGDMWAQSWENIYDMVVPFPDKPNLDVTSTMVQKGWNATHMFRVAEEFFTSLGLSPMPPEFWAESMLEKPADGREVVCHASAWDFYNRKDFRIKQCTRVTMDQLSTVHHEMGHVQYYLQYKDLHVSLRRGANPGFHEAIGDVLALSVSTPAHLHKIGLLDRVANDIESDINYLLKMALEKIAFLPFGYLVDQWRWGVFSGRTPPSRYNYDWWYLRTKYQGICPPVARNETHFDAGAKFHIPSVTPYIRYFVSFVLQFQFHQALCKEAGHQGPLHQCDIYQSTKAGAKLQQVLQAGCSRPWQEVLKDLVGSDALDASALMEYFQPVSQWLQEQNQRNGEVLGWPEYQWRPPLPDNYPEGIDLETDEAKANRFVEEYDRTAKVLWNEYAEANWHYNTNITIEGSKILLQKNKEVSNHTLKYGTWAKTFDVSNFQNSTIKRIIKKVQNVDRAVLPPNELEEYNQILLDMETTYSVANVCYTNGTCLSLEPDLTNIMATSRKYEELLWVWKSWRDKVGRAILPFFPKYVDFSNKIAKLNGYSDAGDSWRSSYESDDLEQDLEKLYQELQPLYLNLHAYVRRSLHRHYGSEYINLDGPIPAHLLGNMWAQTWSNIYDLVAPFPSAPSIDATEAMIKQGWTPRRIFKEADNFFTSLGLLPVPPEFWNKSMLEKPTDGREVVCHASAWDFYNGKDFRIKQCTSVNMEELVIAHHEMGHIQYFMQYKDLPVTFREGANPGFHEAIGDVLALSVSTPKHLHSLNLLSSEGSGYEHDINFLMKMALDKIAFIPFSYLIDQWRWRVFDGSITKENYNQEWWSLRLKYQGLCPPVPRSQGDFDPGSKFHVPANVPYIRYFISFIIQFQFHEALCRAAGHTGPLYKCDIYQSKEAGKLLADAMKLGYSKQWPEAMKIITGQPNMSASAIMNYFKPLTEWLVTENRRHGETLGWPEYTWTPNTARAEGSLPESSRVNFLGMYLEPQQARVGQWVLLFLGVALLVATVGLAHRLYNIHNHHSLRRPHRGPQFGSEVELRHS
Description: The experiment was carried out simultaneously with the above one and under the same conditions.
The basal pressure value for each rat was recorded, then doses of 0.1 μg/Kg of body weight of angiotensin-I were injected through the jugular catheter. […] From these values and the basal ones the pressure increase induced by angiotensin-I in each rat was calculated.
The percentages of inhibition of the pressure increase induced by angiotensin-I by different doses of test compounds were easily calculated and for each dose a single value, averaged on the three animals of the group was considered. By plotting the concentrations of test compound on a logarithmic scale versus the percent inhibitory effects, a linear correlation was established which allowed the calculation of the ED50, i.e. the dose of test compound which inhibits by 50% the pressure increase induced by angiotensin-I.

## O=C(O)[C@@H]1CCCN1C(=O)C1CCCC1S (stereo partly drawn) [Example 2, 1-[(2-mercaptocyclopentyl)carbonyl]-L-proline]
[1]
  IC50: 2340 nM
[2]; rat, iv, 0.25 h, read-out: ED50 (dose which inhibits by 50% the pressure increase induced by angiotensin-I)
  ED50: 2.3 mg/kg

## O=C(O)[C@@H]1CCCN1C(=O)C1CCCC1S (single isomer, unassigned) [Example 6A, 1-[(2-mercaptocyclopentyl)carbonyl]-L-proline]
[1]
  IC50: 863 nM

## O=C(O)[C@@H]1CCCN1C(=O)C1CCCC1S (stereo partly drawn) [Example 6B, 1-[(2-mercaptocyclopentyl)carbonyl]-L-proline]
[2]; intravenous, 15 min
  ED50 (dose which inhibits by 50% the pressure increase induced by angiotensin-I): 1.8 mg/kg

## O=C(SC1CCCC1C(=O)N1CCC[C@H]1C(=O)O)c1ccccc1 (single isomer, unassigned) [Example 5B, 1-[(2-benzoylthiocyclopentyl)carbonyl]-L-proline]
[1]
  IC50: 662 nM
